Test results taken from PubChem BioAssay AID328 (DTP/NCI, 2004).
Values joined by “and” are separate entries in the source; they are usually repeats but may differ in a detail not shown here. Identical values can stand only once. Inconclusive results and toxic doses are left out. How the source made its calls: active means survival T/C of 150% or more; inactive means T/C below 125% in these data.

System: BDF1 mice, P388 leukemia ip, median survival T/C
Assay: NCI In Vivo Anticancer Drug Screen. Data for tumor model P388 Leukemia (intraperitoneal) in B6D2F1 (BDF1) mice
Conditions: endpoint: median survival time, higher = longer survival
Summary of the method: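 Transplantable tumour in mice; compound vs vehicle dosing; survival scored; ratio of treated to control reported.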

[1] = dose: 100.0 mg/kg/injection, schedule: Q01DX009 (ip), vehicle: Klucel (hydroxypropylcellulose) (HPC)
[2] = dose: 100.0 mg/kg/injection, schedule: Q04DX003 (ip), vehicle: Klucel (hydroxypropylcellulose) (HPC)
[3] = dose: 200.0 mg/kg/injection, schedule: Q01DX009 (ip), vehicle: Klucel (hydroxypropylcellulose) (HPC)
[4] = dose: 200.0 mg/kg/injection, schedule: Q04DX003 (ip), vehicle: Klucel (hydroxypropylcellulose) (HPC)
[5] = dose: 400.0 mg/kg/injection, schedule: Q01DX009 (ip), vehicle: Klucel (hydroxypropylcellulose) (HPC)
[6] = dose: 100.0 mg/kg/injection, schedule: Q01DX009 (ip), vehicle: saline with Tween-80
[7] = dose: 100.0 mg/kg/injection, schedule: Q04DX003 (ip), vehicle: saline with Tween-80
[8] = dose: 200.0 mg/kg/injection, schedule: Q04DX003 (ip), vehicle: saline with Tween-80
[9] = dose: 400.0 mg/kg/injection, schedule: Q04DX003 (ip), vehicle: saline with Tween-80
[10] = dose: 25.0 mg/kg/injection, schedule: Q01DX009 (ip), vehicle: saline with Tween-80
[11] = dose: 50.0 mg/kg/injection, schedule: Q01DX009 (ip), vehicle: saline with Tween-80
[12] = dose: 200.0 mg/kg/injection, schedule: Q01DX009 (ip), vehicle: saline with Tween-80
[13] = dose: 400.0 mg/kg/injection, schedule: Q01DX009 (ip), vehicle: saline with Tween-80
[14] = dose: 50.0 mg/kg/injection, schedule: Q01DX009 (ip), vehicle: Klucel (hydroxypropylcellulose) (HPC)
[15] = dose: 100.0 mg/kg/injection, schedule: Q01DX009 (ip), vehicle: saline

Measured: T/C

COc1ccccc1/C=C(/C)[N+](=O)[O-]
active: dose: 33.0 mg/kg/injection, schedule: Q01DX010 (ip), vehicle: carboxymethylcellulose (CMC) 175 % of control
inactive: dose: 10.0 mg/kg/injection, schedule: Q01DX010 (ip), vehicle: steriod suspending solution 90 % of control | dose: 14.0 mg/kg/injection, schedule: Q01DX010 (ip), vehicle: steriod suspending solution 110 % of control | dose: 22.0 mg/kg/injection, schedule: Q01DX010 (ip), vehicle: steriod suspending solution 120 % of control | dose: 33.0 mg/kg/injection, schedule: Q01DX010 (ip), vehicle: steriod suspending solution 120 % of control | dose: 50.0 mg/kg/injection, schedule: Q01DX010 (ip), vehicle: steriod suspending solution 120 % of control | dose: 70.0 mg/kg/injection, schedule: Q01DX010 (ip), vehicle: steriod suspending solution 110 % of control | dose: 75.0 mg/kg/injection, schedule: Q01DX010 (ip), vehicle: carboxymethylcellulose (CMC) 95 % of control

O/N=C\CCC/C=N/O
inactive: dose: 50.0 mg/kg/injection, schedule: Q04DX003 (ip), vehicle: Klucel (hydroxypropylcellulose) (HPC) 100 % of control | [1] 91 % of control | [2] 100 % of control | [3] 95 % of control | [4] 100 % of control | [5] 95 % of control

O=Cc1[nH]c(=S)[nH]c(=O)c1Cc1cccc(Cl)c1
inactive: [6] 115 % of control | [7] 113 % of control | [8] 118 % of control | [9] 113 % of control

Cc1nc(OCc2ccccc2)c(C(=O)OCc2ccccc2)nc1C
inactive: [10] 100 % of control | [11] 106 % of control and 121 % of control | [6] 106 % of control and 108 % of control | [7] 94 % of control | [12] 100 % of control and 101 % of control | [8] 91 % of control | [13] 97 % of control and 124 % of control | [9] 100 % of control | dose: 500.0 mg/kg/injection, schedule: Q01DX009 (ip), vehicle: saline with Tween-80 106 % of control

CCCCCC[C@@H](O)C/C=C\CCCCCCCC(=O)OCCO
inactive: dose: 50.0 mg/kg/injection, schedule: Q01DX005 (ip), vehicle: saline 99 % of control | dose: 100.0 mg/kg/injection, schedule: Q01DX005 (ip), vehicle: saline 107 % of control | dose: 200.0 mg/kg/injection, schedule: Q01DX005 (ip), vehicle: saline 93 % of control | dose: 400.0 mg/kg/injection, schedule: Q01DX005 (ip), vehicle: saline 105 % of control | dose: 800.0 mg/kg/injection, schedule: Q01DX005 (ip), vehicle: saline 115 % of control | dose: 1600.0 mg/kg/injection, schedule: Q01DX005 (ip), vehicle: saline 107 % of control

O=C1NCC(COc2ccc(Cl)cc2)O1 (configuration not stated)
inactive: [14] 108 % of control | [1] 105 % of control | [3] 105 % of control

CCCCNC(C)(C)C(SS)c1cccs1 (configuration not stated)
inactive: dose: 100.0 mg/kg/injection, schedule: Q04DX003 (ip), vehicle: other 100 % of control | dose: 200.0 mg/kg/injection, schedule: Q04DX003 (ip), vehicle: other 100 % of control

COc1ccc(C(=S)N2CCN(c3ccccc3)CC2)cc1
inactive: [11] 95 % of control | [6] 100 % of control | [12] 95 % of control

S=C(Nc1ccccn1)Nc1ccccn1
inactive: dose: 25.0 mg/kg/injection, schedule: Q01DX009 (ip), vehicle: Klucel (hydroxypropylcellulose) (HPC) 99 % of control and 106 % of control | [14] 99 % of control and 118 % of control | [1] 89 % of control and 116 % of control | [3] 98 % of control

C[C@]12CC[C@H]3[C@@H](CC[C@]4(O)C[C@@H](O)CC[C@]34/C=N/O)[C@@]1(O)CC[C@@H]2C1=COC(=O)C1
inactive: dose: 1.87 mg/kg/injection, schedule: Q01DX010 (ip), vehicle: carboxymethylcellulose (CMC) 94 % of control | dose: 3.75 mg/kg/injection, schedule: Q01DX010 (ip), vehicle: carboxymethylcellulose (CMC) 100 % of control | dose: 7.5 mg/kg/injection, schedule: Q01DX010 (ip), vehicle: carboxymethylcellulose (CMC) 111 % of control | dose: 15.0 mg/kg/injection, schedule: Q01DX010 (ip), vehicle: carboxymethylcellulose (CMC) 116 % of control | dose: 30.0 mg/kg/injection, schedule: Q01DX010 (ip), vehicle: carboxymethylcellulose (CMC) 111 % of control | dose: 60.0 mg/kg/injection, schedule: Q01DX010 (ip), vehicle: carboxymethylcellulose (CMC) 122 % of control

Cc1ccc2c(c1)Oc1ccccc1N=C2
inactive: [11] 97 % of control | [6] 103 % of control | [12] 97 % of control

Cc1ccc(S(=O)(=O)N(CC(=O)O)c2cccc(Cl)c2)cc1
inactive: [1] 100 % of control | [2] 100 % of control | [3] 100 % of control | [4] 104 % of control | [5] 104 % of control | dose: 400.0 mg/kg/injection, schedule: Q04DX003 (ip), vehicle: Klucel (hydroxypropylcellulose) (HPC) 100 % of control

N#Cc1ccc(N)c(CSc2ccccc2)c1
inactive: dose: 50.0 mg/kg/injection, schedule: Q04DX002 (ip), vehicle: saline with Tween-80 93 % of control | dose: 100.0 mg/kg/injection, schedule: Q04DX002 (ip), vehicle: saline with Tween-80 90 % of control | dose: 200.0 mg/kg/injection, schedule: Q04DX002 (ip), vehicle: saline with Tween-80 99 % of control

Cc1cc(NC(=O)c2ccc(C(=O)Nc3ccc(C4=NCCN4)c(C)c3)cc2)ccc1C1=NCCN1
inactive: [6] 122 % of control
active: [12] 186 % of control

O=[N+]([O-])c1ccc2c(c1)c(-c1cc(Cl)cc(Cl)c1)nc1ccccc12
inactive: [10] 108 % of control | [11] 97 % of control | [6] 101 % of control | [7] 99 % of control | [12] 90 % of control | [8] 88 % of control | [13] 99 % of control | [9] 107 % of control

NNc1ccnc2[nH]ncc12
inactive: dose: 6.25 mg/kg/injection, schedule: Q01DX006 (ip), vehicle: saline with Tween-80 107 % of control | dose: 12.5 mg/kg/injection, schedule: Q01DX006 (ip), vehicle: saline with Tween-80 104 % of control | dose: 25.0 mg/kg/injection, schedule: Q01DX006 (ip), vehicle: saline with Tween-80 104 % of control

CC1CCC2(CC1)NC(=O)N(CNc1ccccc1)C2=O (configuration not stated)
inactive: dose: 50.0 mg/kg/injection, schedule: Q04DX003 (ip), vehicle: saline with Tween-80 100 % of control | [7] 87 % of control | [8] 100 % of control

N#CC1(NC(Cc2ccccc2)c2ccccc2)CCCCCCCCCCC1 (configuration not stated)
inactive: [11] 92 % of control | [6] 86 % of control | [12] 104 % of control | [13] 102 % of control

COC1CCCCC1Br (configuration not stated)
inactive: [15] 113 % of control | dose: 200.0 mg/kg/injection, schedule: Q01DX009 (ip), vehicle: saline 109 % of control | dose: 400.0 mg/kg/injection, schedule: Q01DX009 (ip), vehicle: saline 104 % of control

O=C(COc1ccc(Cl)cc1Cl)Nc1ccc(F)cc1
inactive: [7] 95 % of control | [8] 100 % of control | [9] 90 % of control

CC(C)CNC(=S)/N=C1\CCN(c2ccccc2)N1
inactive: dose: 4.5 mg/kg/injection, schedule: Q01DX009 (ip), vehicle: saline with Tween-80 118 % of control | dose: 9.0 mg/kg/injection, schedule: Q01DX009 (ip), vehicle: saline with Tween-80 86 % of control | dose: 18.0 mg/kg/injection, schedule: Q01DX009 (ip), vehicle: saline with Tween-80 92 % of control

N=C(N)c1ccc(-c2ccc(-c3ccc(C(=N)N)cc3)o2)cc1
inactive: dose: 3.13 mg/kg/injection, schedule: Q01DX009 (ip), vehicle: saline with Tween-80 111 % of control | dose: 6.25 mg/kg/injection, schedule: Q01DX009 (ip), vehicle: saline with Tween-80 119 % of control

COC(=O)C1SCc2ccccc2C1=O (configuration not stated)
inactive: [7] 104 % of control | [8] 105 % of control | [9] 105 % of control

CCOC(=O)CCN(CC(=O)OCC)C(C)C
inactive: [6] 104 % of control | [7] 95 % of control | [12] 104 % of control | [8] 104 % of control | [13] 109 % of control | [9] 95 % of control

NC(CC1=CCC=CC1)C(=O)O (configuration not stated)
inactive: dose: 50.0 mg/kg/injection, schedule: Q01DX009 (ip), vehicle: saline 96 % of control and 113 % of control | [15] 117 % of control

C=C1C(=O)OC2/C=C(\C)CC(O)/C=C(/C)CC(OC(=O)C(O)(CO)C(C)S)C12 (configuration not stated)
inactive: dose: 100.0 mg/kg/injection, schedule: Q04DX002 (ip), vehicle: Klucel (hydroxypropylcellulose) (HPC) 120 % of control | dose: 200.0 mg/kg/injection, schedule: Q04DX002 (ip), vehicle: Klucel (hydroxypropylcellulose) (HPC) 118 % of control
